We go through 24 molecules from patent US20250136570A1 (Tango Therapeutics, Inc., priority 2021, published 2025).

The target in one test is HDAC3/NCor2 (Homo sapiens (Human), UniProt O15379). As to the kind of experiment: HDAC3 inhibition, Fluor de Lys fluorescent enzyme assay. In kind it is biochemical. The following applies: 3 hours pre-incubation at room temp; 1.2 nM enzyme; 16 μM Fluor de Lys substrate; duplicate. From the text: (§1) Recombinant HDAC1 (cat #: 50051) and HDAC3/NCor2 (cat #: 50003) enzymes were purchased from BPS Bioscience (San Diego, CA, US). Assay reagents for the detection of HDAC enzyme activity (Fluor de Lys®—Green substrate and Developer kits) were purchased from Enzo Life Science (Farmingdale, NY, US). Plates used to conduct the enzyme reaction were Proxiplate-384 (cat #: 6008280) Plus from PerkinElmer (Waltham, MA, US). TSA, an HDAC inhibitor, was purchased from Enzo Life Science (cat #BML-GR309-9090) The remainder of the reagents used to prepare the assay buffer were purchased from Sigma-Aldrich (St Louis, MO, US). Unless stated otherwise, HDAC1 and 3 assays were conducted in 50 mM Tris buffer, pH 8, 137 mM NaCl, 2.7 mM KCl, 0.01% BSA.
(§2) IC50 determination for HDAC1 and HDAC3—Prior to adding reagents, 50 nL/well of compound were added to Proxiplates using an Echo dispenser instrument (Beckman Coulter, CA, US). After addition of compound, 2.5 μL/well of 2× enzyme solution was added and the enzyme was pre-incubated with compound for 3 hours at room temp. (˜22° C.). After the pre-incubation period, the enzyme reaction was initiated by adding 2.5 μL/well of 2× Fluor de Lys® substrate solution. The assay reaction was stopped after one hour by adding 5 μl/well of a 0.66× Developer solution containing TSA (3.2 μM). The final product of the enzyme reaction was read using a Spectramax plate reader instrument (Molecular Devices, CA, US) using a fluorescent readout (Ex 360 nm/Em 460 nm). The final enzyme concentrations in the assay buffer for HDAC1 and 3 were 6 and 1.2 nM, respectively. The final Fluor de Lys® substrate concentration in the assay buffer was 16 μM for all HDAC enzymes. IC50 values were determined using the following equation: […]
(§3) Where Efree and Eo are the free and total amount of HDAC enzyme in the reaction mixture, n is the hill coefficient, I is the free inhibitor concentration, and IC50 is the measure of the potency equivalent to the inhibitor concentration that leads to a 50% occupancy of the total enzyme. Each data was generated in duplicate.

In the next test the target is Recombinant HDAC1 (Homo sapiens (Human), UniProt Q13547). Briefly: HDAC1 inhibition, Fluor de Lys fluorescent enzyme assay. Type of test: biochemical. The conditions noted are these: 3 hours pre-incubation at room temp; 6 nM enzyme; 16 μM Fluor de Lys substrate; duplicate.
Text: as §1, §2, §3

Structures are written as SMILES.

Chain of HDAC3/NCor2 (O15379 whole entry): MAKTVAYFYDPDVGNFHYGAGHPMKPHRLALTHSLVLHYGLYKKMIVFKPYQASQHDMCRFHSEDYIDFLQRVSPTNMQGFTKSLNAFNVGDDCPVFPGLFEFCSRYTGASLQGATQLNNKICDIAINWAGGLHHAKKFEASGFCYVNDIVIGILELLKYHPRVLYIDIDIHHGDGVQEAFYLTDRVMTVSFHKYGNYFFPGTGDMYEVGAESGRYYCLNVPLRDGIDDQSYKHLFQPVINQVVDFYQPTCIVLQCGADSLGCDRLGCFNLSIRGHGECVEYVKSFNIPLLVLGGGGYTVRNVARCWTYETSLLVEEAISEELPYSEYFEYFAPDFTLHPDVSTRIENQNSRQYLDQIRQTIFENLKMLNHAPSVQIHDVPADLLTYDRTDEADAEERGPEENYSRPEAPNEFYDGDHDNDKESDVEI
Chain of HDAC3/NCor2 (Q9Y618 395-489 partner): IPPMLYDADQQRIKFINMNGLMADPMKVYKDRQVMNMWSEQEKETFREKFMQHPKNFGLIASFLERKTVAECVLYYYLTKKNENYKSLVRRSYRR
Chain of Recombinant HDAC1 (Q13547 whole entry): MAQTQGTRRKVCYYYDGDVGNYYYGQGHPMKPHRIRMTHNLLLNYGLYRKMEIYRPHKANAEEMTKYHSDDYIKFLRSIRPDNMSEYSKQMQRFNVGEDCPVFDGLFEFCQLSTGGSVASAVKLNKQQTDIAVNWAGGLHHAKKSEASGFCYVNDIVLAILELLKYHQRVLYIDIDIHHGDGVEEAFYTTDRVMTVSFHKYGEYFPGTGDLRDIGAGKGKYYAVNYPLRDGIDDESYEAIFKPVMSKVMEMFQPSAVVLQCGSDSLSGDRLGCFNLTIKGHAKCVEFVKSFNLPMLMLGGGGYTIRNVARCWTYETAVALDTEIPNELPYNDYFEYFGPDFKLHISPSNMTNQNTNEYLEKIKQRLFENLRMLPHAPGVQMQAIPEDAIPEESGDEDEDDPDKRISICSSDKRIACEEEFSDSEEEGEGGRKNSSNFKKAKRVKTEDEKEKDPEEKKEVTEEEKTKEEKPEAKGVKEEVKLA

In general, IC50 refers to the point on the concentration scale where inhibition reaches its midpoint. On to `C[S@](=N)(=O)c1ccc(C(=O)Nc2cc(-c3ccc(F)cc3)ccc2N)cc1` [Compound 134, (S)—N-[2-amino-5-(4-fluorophenyl)phenyl]-4-(methylsulfonimidoyl)benzamide], for which the IC50 on HDAC3/NCor2 was 500 to 2000 nM; at Recombinant HDAC1, less than 100 nM.

For `N=[S@](=O)(c1ccc(C(=O)Nc2cc(-c3ccc(F)cc3)ccc2N)cc1)c1ccccn1` (single isomer, unassigned) [Compound 220], the IC50 was 500 to 2000 nM on HDAC3/NCor2 and less than 100 nM on Recombinant HDAC1.

As for `Nc1ccc(-c2ccc(Cl)cc2)cc1NC(=O)c1ccc(S2(=O)=NCCC2)cc1` (stereo not drawn) [Compound 203, N-[2-amino-5-(4-chlorophenyl)phenyl]-4-(1-oxo-4,5-dihydro-3H-isothiazol-1-yl)benzamide], the 50% inhibitory concentration (IC50) is greater than 2000 nM on HDAC3/NCor2 and less than 100 nM on Recombinant HDAC1.

Turning to `CS(=N)(=O)c1cc2cc(C(=O)Nc3cc(-c4ccc(F)cc4)ccc3N)ccc2o1` (stereo not drawn) [Compound 248, N-[2-amino-5-(4-fluorophenyl)phenyl]-2-(methylsulfonimidoyl)benzofuran-5-carboxamide], the IC50 was 500 to 2000 nM against HDAC3/NCor2 and less than 100 nM at Recombinant HDAC1.

As to `N=S(=O)(c1ccc(C(=O)Nc2cc(-c3ccc(F)cc3)ccc2N)cc1)c1ccc(F)cn1` (stereo not drawn) [Compound 247, N-[2-amino-5-(4-fluorophenyl)phenyl]-4-[(5-fluoro-2-pyridyl)sulfonimidoyl]benzamide], the IC50 against HDAC3/NCor2 is 500 to 2000 nM; at Recombinant HDAC1, less than 100 nM.

Regarding `CS(=O)(=NC#N)c1ccc(C(=O)Nc2cc(-c3cccs3)ccc2N)cc1` (stereo not drawn) [Compound 153, N-[2-amino-5-(2-thienyl)phenyl]-4-(N-cyano-S-methyl-sulfonimidoyl)benzamide], the results for the 50% inhibitory concentration (IC50) against HDAC3/NCor2 and at Recombinant HDAC1 were 500 to 2000 nM and less than 100 nM, respectively.

Consider `C[S@](=N)(=O)c1ccc(C(=O)Nc2cc(-c3ccc(F)s3)ccc2N)cc1` [Compound 149, (S)—N-[2-amino-5-(5-fluoro-2-thienyl)phenyl]-4-(methylsulfonimidoyl)benzamide], for which the results for the IC50 against HDAC3/NCor2 and on Recombinant HDAC1 were 500 to 2000 nM and less than 100 nM, respectively.

For the molecule `N=S(=O)(c1ccc(C(=O)Nc2cc(-c3ccccn3)ccc2N)cc1)C1CC1` (stereo not drawn) [Compound 120, N-[2-amino-5-(2-pyridyl)phenyl]-4-(cyclopropylsulfonimidoyl)benzamide], the IC50 against HDAC3/NCor2 is greater than 2000 nM; on Recombinant HDAC1, 100 to 500 nM.

For the molecule `COc1ccc(S(=N)(=O)c2ccc(C(=O)Nc3cc(-c4ccc(F)cc4)ccc3N)cc2)cn1` (stereo not drawn) [Compound 222, N-[2-amino-5-(4-fluorophenyl)phenyl]-4-[(6-methoxy-3-pyridyl)sulfonimidoyl]benzamide], the IC50 against HDAC3/NCor2 was 500 to 2000 nM; on Recombinant HDAC1 it was less than 100 nM.

`CS(=N)(=O)c1cc2ccc(C(=O)Nc3cc(-c4ccc(F)cc4)ccc3N)cc2o1` (stereo not drawn) [Compound 187, N-[2-amino-5-(4-fluorophenyl)phenyl]-2-(methylsulfonimidoyl)benzofuran-6-carboxamide]: the IC50 was 500 to 2000 nM against HDAC3/NCor2 and less than 100 nM at Recombinant HDAC1.

On to `Cc1ccc(-c2ccc(N)c(NC(=O)c3ccc(S(C)(=N)=O)cc3)c2)cc1` (stereo not drawn) [Compound 136, N-[2-amino-5-(p-tolyl)phenyl]-4-(methylsulfonimidoyl)benzamide], for which the IC50 against HDAC3/NCor2 was greater than 2000 nM; on Recombinant HDAC1 it was less than 100 nM.

Turning to `N=[S@@](=O)(c1ccc(C(=O)Nc2cc(-c3ccc(F)cc3)ccc2N)cc1)c1cncnc1` (single isomer, unassigned) [Compound 181], the IC50 against HDAC3/NCor2 was 500 to 2000 nM; at Recombinant HDAC1 it was less than 100 nM.

Take `CS(=N)(=O)c1ccc(C(=O)Nc2cc(C#CC3CC3)ccc2N)cc1` (stereo not drawn) [Compound 155, N-[2-amino-5-(2-cyclopropylethynyl)phenyl]-4-(methylsulfonimidoyl)benzamide]: the IC50 against HDAC3/NCor2 and at Recombinant HDAC1 was greater than 2000 nM each time.

As for `CS(=N)(=O)c1cc2sc(C(=O)Nc3cc(-c4ccc(F)cc4)ccc3N)cc2cn1` (stereo not drawn) [Compound 253, N-[2-amino-5-(4-fluorophenyl)phenyl]-6-(methylsulfonimidoyl)thieno[3,2-c]pyridine-2-carboxamide], the IC50 was 500 to 2000 nM against HDAC3/NCor2 and less than 100 nM at Recombinant HDAC1.

Take `Cc1cccc(S(=N)(=O)c2ccc(C(=O)Nc3cc(-c4ccc(F)cc4)ccc3N)cc2)n1` (stereo not drawn) [Compound 215, N-[2-amino-5-(4-fluorophenyl)phenyl]-4-[(6-methyl-2-pyridyl)sulfonimidoyl]benzamide]: the IC50 at HDAC3/NCor2 is 500 to 2000 nM; at Recombinant HDAC1, less than 100 nM.

For the molecule `CS(=N)(=O)c1ccc(C(=O)Nc2cc(-c3ncccn3)ccc2N)cc1` (stereo not drawn) [Compound 158, N-(2-amino-5-pyrimidin-2-yl-phenyl)-4-(methylsulfonimidoyl)benzamide], the figures for the IC50 against HDAC3/NCor2 and on Recombinant HDAC1 were greater than 2000 nM and 500 to 2000 nM, respectively.

Consider `Cc1nc[nH]c1S(=N)(=O)c1ccc(C(=O)Nc2cc(-c3ccc(F)cc3)ccc2N)cc1` (stereo not drawn) [Compound 209, N-[2-amino-5-(4-fluorophenyl)phenyl]-4-[(4-methyl-1H-imidazol-5-yl)sulfonimidoyl]benzamide], for which the IC50 on HDAC3/NCor2 was 100 to 500 nM; at Recombinant HDAC1, less than 100 nM.

For `CS(=N)(=O)c1ccc2oc(C(=O)Nc3cc(-c4cccs4)ccc3N)cc2c1` (stereo not drawn) [Compound 143, N-[2-amino-5-(2-thienyl)phenyl]-5-(methylsulfonimidoyl)benzofuran-2-carboxamide], the IC50 against HDAC3/NCor2 is 500 to 2000 nM; at Recombinant HDAC1, less than 100 nM.

With `N=S(=O)(c1ccccc1)c1ccc(C(=O)Nc2cc(-c3cccs3)ccc2N)cc1` (stereo not drawn) [Compound 102, N-[2-amino-5-(2-thienyl)phenyl]-4-(phenylsulfonimidoyl)benzamide], the values for the IC50 against HDAC3/NCor2 and on Recombinant HDAC1 were 500 to 2000 nM and less than 100 nM, respectively.

Consider `CCN=S(C)(=O)c1ccc2oc(C(=O)Nc3cc(-c4ccc(F)cc4)ccc3N)cc2c1` (stereo not drawn) [Compound 237, N-[2-amino-5-(4-fluorophenyl)phenyl]-5-(N-ethyl-S-methyl-sulfonimidoyl)benzofuran-2-carboxamide], for which the values for the IC50 against HDAC3/NCor2 and at Recombinant HDAC1 were 500 to 2000 nM and less than 100 nM, respectively.

In the case of `CS(=N)(=O)c1ccc(C(=O)Nc2cc(-c3ccc(F)cc3)ccc2N)nn1` (stereo not drawn) [Compound 159, N-[2-amino-5-(4-fluorophenyl)phenyl]-6-(methylsulfonimidoyl)pyridazine-3-carboxamide], the figures for the IC50 against HDAC3/NCor2 and at Recombinant HDAC1 were 100 to 500 nM and less than 100 nM, respectively.

Consider `CS(=N)(=O)c1ccc(C(=O)Nc2cc(-c3ccc(F)s3)ccc2N)nn1` (stereo not drawn) [Compound 152, N-[2-amino-5-(5-fluoro-2-thienyl)phenyl]-6-(methylsulfonimidoyl)pyridazine-3-carboxamide], for which the IC50 is 100 to 500 nM on HDAC3/NCor2 and less than 100 nM on Recombinant HDAC1.

Consider `CC(O)c1ccc(-c2ccc(N)c(NC(=O)c3ccc(S(C)(=N)=O)cc3)c2)s1` (stereo not drawn) [Compound 255, N-[2-amino-5-[5-(1-hydroxyethyl)-2-thienyl]phenyl]-4-(methylsulfonimidoyl)benzamide], for which the figures for the IC50 against HDAC3/NCor2 and at Recombinant HDAC1 were greater than 2000 nM and less than 100 nM, respectively.

In the case of `CS(=N)(=O)c1cnc2cc(C(=O)Nc3cc(-c4ccc(F)cc4)ccc3N)sc2c1` (stereo not drawn) [Compound 200, N-[2-amino-5-(4-fluorophenyl)phenyl]-6-(methylsulfonimidoyl)thieno[3,2-b]pyridine-2-carboxamide], the half-maximal inhibitory concentration (IC50) against HDAC3/NCor2 was 500 to 2000 nM; on Recombinant HDAC1, less than 100 nM.
